Four compounds from ChEMBL document CHEMBL3526135, “Induction of xenobiotic receptors, transporters, and drug metabolizing enzymes by oxycodone” (Drug Metab Dispos, 2013) can be followed below.

SMILES strings stand for the structures.

Data set [1] concerns the target T1, Nuclear receptor subfamily 1 group I member 3 (Homo sapiens, UniProt Q14994).
T1 sequence (Q14994 whole entry): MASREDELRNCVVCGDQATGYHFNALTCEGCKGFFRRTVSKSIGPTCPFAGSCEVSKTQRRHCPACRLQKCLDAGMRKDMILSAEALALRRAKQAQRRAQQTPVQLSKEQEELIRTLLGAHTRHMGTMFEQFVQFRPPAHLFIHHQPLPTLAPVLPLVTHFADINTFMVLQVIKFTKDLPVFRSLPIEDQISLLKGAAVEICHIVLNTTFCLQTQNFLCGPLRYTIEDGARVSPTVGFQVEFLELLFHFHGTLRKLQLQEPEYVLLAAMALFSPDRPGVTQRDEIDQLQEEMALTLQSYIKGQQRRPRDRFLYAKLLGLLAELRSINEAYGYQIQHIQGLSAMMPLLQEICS
Put plainly: Transactivation of human CAR1 transfected in human HepG2 cells assessed as CYP2B6 expression at 1 to 30 uM after 24 hrs by luciferase reporter gene assay. Format: ADME, cell-based. As to conditions: hepg2, 24 h; call rule not given here.

Data set [2] deals with T2, Nuclear receptor subfamily 1 group I member 3 (Mus musculus, UniProt O35627).
T2 sequence (O35627 whole entry): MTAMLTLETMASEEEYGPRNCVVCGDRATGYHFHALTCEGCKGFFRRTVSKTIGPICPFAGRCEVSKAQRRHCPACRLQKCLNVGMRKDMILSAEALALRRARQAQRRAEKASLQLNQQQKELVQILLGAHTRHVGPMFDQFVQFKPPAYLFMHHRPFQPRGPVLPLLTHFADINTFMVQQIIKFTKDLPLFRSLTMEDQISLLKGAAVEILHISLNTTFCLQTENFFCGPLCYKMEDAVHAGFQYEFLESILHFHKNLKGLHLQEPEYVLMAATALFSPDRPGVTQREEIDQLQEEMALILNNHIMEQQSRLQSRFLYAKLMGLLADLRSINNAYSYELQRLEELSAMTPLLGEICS
Put plainly: Transactivation of mouse CAR1 transfected in human HepG2 cells assessed as CYP2B6 expression at 1 to 30 uM after 24 hrs by luciferase reporter gene assay. The data set is classed as ADME, cell-based. The conditions noted are these: hepg2, 24 h. (In general: Reporter assays use an easily measured gene product as a stand-in for the process of interest.)

In data set [3] the target is T3, Nuclear receptor subfamily 1 group I member 2 (Rattus norvegicus, UniProt Q9R1A7).
T3 sequence (Q9R1A7 whole entry): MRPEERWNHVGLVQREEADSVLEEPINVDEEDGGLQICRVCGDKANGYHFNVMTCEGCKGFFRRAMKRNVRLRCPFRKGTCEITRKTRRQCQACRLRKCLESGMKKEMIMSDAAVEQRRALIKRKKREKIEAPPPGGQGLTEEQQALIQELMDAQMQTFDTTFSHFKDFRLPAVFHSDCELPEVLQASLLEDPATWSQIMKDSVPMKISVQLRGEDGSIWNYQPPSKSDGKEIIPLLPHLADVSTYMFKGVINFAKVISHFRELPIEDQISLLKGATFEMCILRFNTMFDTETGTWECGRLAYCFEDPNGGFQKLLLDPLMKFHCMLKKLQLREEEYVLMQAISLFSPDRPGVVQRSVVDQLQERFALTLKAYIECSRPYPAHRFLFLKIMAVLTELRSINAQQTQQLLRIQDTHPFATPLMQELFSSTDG
Nature of the data set: Transactivation of rat PXR at 0.1 to 30 uM after 24 to 48 hrs by cell-based luciferase reporter gene assay. Format: ADME.

Data set [4] can be described thus: Transactivation of human CAR1 Ala retention mutant transfected in human HepG2 cells assessed as CYP2B6 expression at 1 to 30 uM after 24 hrs by luciferase reporter gene assay. Format: ADME, cell-based. The conditions noted are these: hepg2, 24 h.
Data set [5] addresses T4, Aryl hydrocarbon receptor (Homo sapiens, UniProt P35869).
T4 sequence (P35869 whole entry): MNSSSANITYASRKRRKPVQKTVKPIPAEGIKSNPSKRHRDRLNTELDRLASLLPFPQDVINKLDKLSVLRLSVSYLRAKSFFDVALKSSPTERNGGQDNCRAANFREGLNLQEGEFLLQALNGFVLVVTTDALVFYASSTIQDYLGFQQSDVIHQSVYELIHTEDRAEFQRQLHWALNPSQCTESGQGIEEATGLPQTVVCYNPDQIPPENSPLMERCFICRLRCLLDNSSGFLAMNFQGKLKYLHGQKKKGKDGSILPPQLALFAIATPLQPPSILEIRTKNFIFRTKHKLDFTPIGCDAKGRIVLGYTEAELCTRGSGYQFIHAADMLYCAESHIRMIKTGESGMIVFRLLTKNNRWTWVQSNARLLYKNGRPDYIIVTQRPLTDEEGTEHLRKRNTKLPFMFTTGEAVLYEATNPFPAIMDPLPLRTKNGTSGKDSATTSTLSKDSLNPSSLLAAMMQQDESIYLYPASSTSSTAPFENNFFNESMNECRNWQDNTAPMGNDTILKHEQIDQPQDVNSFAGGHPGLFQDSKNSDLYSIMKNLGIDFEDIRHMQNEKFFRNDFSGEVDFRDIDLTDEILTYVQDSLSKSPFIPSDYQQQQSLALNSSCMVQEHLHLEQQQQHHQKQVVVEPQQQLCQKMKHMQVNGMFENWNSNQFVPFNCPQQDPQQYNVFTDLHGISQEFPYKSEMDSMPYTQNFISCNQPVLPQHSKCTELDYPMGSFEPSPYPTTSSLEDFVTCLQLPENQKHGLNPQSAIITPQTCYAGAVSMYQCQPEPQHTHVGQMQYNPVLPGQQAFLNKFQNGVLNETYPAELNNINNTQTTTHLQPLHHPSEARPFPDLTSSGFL
Nature of the data set: Transactivation of human AhR at 0.1 to 30 uM after 24 to 48 hrs by cell-based luciferase reporter gene assay.

Data set [6] deals with T1, Nuclear receptor subfamily 1 group I member 3. Nature of the data set: Transactivation of human CAR1 transfected in human primary hepatocytes assessed as nuclear translocation at 30 uM by confocal laser scanning microscopy. Format: cell-based, Hepatocyte.
For data set [7] the target is unchanged. Put plainly: Transactivation of human CAR1 transfected in human primary hepatocytes assessed as nuclear translocation at 1 mM by confocal laser scanning microscopy. The data set is classed as cell-based, Hepatocyte. As to conditions: 1000 µM.

In the case of `COc1ccc2c3c1O[C@H]1C(=O)CC[C@@]4(O)[C@@H](C2)NCC[C@]314`, the Activity entry in data set [1] is “Active”; in data set [2], “Not Active”; in data set [3] it was “Not Active”; in data set [4], “Not Active”; in data set [5] it was “Not Active”.

For `CN1CC[C@]23c4c5ccc(O)c4O[C@H]2C(=O)CC[C@@]3(O)[C@H]1C5` [OXYMORPHONE], the Activity entry in data set [1] is listed as “Active”; in data set [2] it was “Not Active”; in data set [3] it was “Not Active”; in data set [4], “Not Active”; in data set [5], “Not Active”.

Consider `COc1ccc2c3c1O[C@H]1C(=O)CC[C@@]4(O)[C@@H](C2)N(C)CC[C@]314` [OXYCODONE], for which the Activity result in data set [1] is reported as “Active”; in data set [2], “Not Active”; in data set [6] it was “Not Active”; in data set [3], “Not Active”; in data set [4], “Not Active”; in data set [5], “Not Active”.

As for `CCC1(c2ccccc2)C(=O)NC(=O)NC1=O` [PHENOBARBITAL], in data set [7], the result was Active.
